Test system: apoE3
Assay: ELISA of apoE3 levels in conditioned media of compound-treated mouse cortical astrocyte cells
Format: cell-based
Conditions: 10 μM compound, 24 hours, normalized to cell protein, relative to DMSO treated cells
Protocol: ApoE inhibition can be readily determined by any one of several assays and techniques known to those of ordinary skill in the art, including the enzyme-linked immunosorbant assay (ELISA). In the experimental results shown in Table 2 and FIG. 5, the ELISA assay was carried out on cortical astrocyte cells from mice. Astrocyte cells produce apoE, LDLR and AbcA1 proteins.
The experiments involved treating mouse cortical astrocyte cells with the claimed compounds at 10 μM concentration for an incubation time of 24 hrs. DMSO solvent was used as a negative control, because the compounds were dissolved in DMSO when applied to the cells.
The ELISA technique involves immobilizing an apoE-specific capture antibody to a 96-well plate, addition of sample (conditioned medium from mouse cortical astrocyte cells treated with the compound for 24 hours), and detection of the bound apoE using a second apoE-specific biotinylated antibody and streptavidin-HRP.
The Mabtech ELISA kit detects the presence of the three apoE isoforms: apoE2, apoE3, and apoE4.
To obtain the data shown in Table 2 and FIG. 5, the mouse cortical astrocyte cells were maintained in DMEM medium (Invitrogen) supplemented with 10 mM HEPES, 1 mM sodium pyruvate, 4.5 g/L glucose, 1% penicillin/streptomycin, and 10% fetal bovine growth serum (Invitrogen) at 37° C., with 5% CO2.
The cells (6×10^4 cells/24-well plate) were grown for 1 day in RPMI, followed by a 24 hour equilibration in serum-free Opti-MEM (Life Technologies). Treatments were carried out in triplicate with […] of fresh Opti-MEM containing 10 μM of compound or vehicle (0.1% DMSO) for 24 hours. […] ApoE concentration in the sample was calculated based on a standard curve derived using known amounts of purified apoE (from Biodesign).
The protein levels in the cells in the 24-well plates were measured using BCA Protein Assay Kit (from Pierce) and used to normalize the data. […] Sample apoE3 concentrations were represented relative to the DMSO treated cells.
The bars in FIG. 5 reflect the respective mean level apoE3 in the media for each compound with an indication of one […].

| Structure (SMILES) | ApoE3 Levels in Cell Media, Average of Three Tests | ApoE3 Levels in Cell Media, Test 1 | ApoE3 Levels in Cell Media, Test 2 | ApoE3 Levels in Cell Media, Test 3 |
| --- | --- | --- | --- | --- |
| CC(C)CNS(=O)(=O)c1cccc2ccccc12 [Compound 121] | 113.6663 % of the DMSO control | 113.2938 % of the DMSO control | 128.755 % of the DMSO control | 98.9502 % of the DMSO control |
| O=S(=O)(Nc1ccccc1)c1ccc2ccccc2c1 [Compound 102] | 97.14 % of the DMSO control | 95.99 % of the DMSO control | 98.8 % of the DMSO control | 96.62 % of the DMSO control |
| CCC(C)NS(=O)(=O)c1ccc2ccccc2c1 (stereo not drawn) [Compound 93] | 102.6197 % of the DMSO control | 103.3801 % of the DMSO control | 109.2249 % of the DMSO control | 95.25 % of the DMSO control |
| CC(C)N(C(C)C)S(=O)(=O)c1ccc2ccccc2c1 [Compound 130] | 89.39 % of the DMSO control | 89.06 % of the DMSO control | 79.12 % of the DMSO control | 100.0032 % of the DMSO control |
| O=S(=O)(NCc1ccccc1)c1ccc(-c2ccccc2)cc1 [Compound 135] | 99.36 % of the DMSO control | 93.55 % of the DMSO control | 101.8388 % of the DMSO control | 102.6888 % of the DMSO control |
| O=C(c1ccc2ccccc2c1)N1CCCC1 [Compound 91] | 104.6561 % of the DMSO control | 126.8225 % of the DMSO control | 87.2 % of the DMSO control | 99.94 % of the DMSO control |
| CCC(C)NS(=O)(=O)c1cccc2ccccc12 (stereo not drawn) [Compound 120] | 88.28 % of the DMSO control | 100.2942 % of the DMSO control | 88.31 % of the DMSO control | 76.25 % of the DMSO control |
| O=S(=O)(NC1CCCCC1)c1cccc2ccccc12 [Compound 124] | 95.1 % of the DMSO control | 96.7646 % of the DMSO control | 90.1191 % of the DMSO control | 98.42 % of the DMSO control |
| O=S(=O)(c1cccc2ccccc12)N1CCCCC1 [Compound 122] | 92.0952 % of the DMSO control | 100.1387 % of the DMSO control | 96.02 % of the DMSO control | 80.1244 % of the DMSO control |
| CCC(C)NS(=O)(=O)c1ccc(-c2ccccc2)cc1 (stereo not drawn) [Compound 132] | 86.84 % of the DMSO control | 81.51 % of the DMSO control | 85.61 % of the DMSO control | 93.42 % of the DMSO control |
| CC(C)CNS(=O)(=O)c1ccc2ccccc2c1 [Compound 94] | 106.8342 % of the DMSO control | 99.12 % of the DMSO control | 91.64 % of the DMSO control | 129.7451 % of the DMSO control |
| O=C(c1ccc2ccccc2c1)N1CCOCC1 [Compound 90] | 98.59 % of the DMSO control | 90.22 % of the DMSO control | 91.69 % of the DMSO control | 113.8441 % of the DMSO control |
| CCCCN(CCCC)S(=O)(=O)c1ccc2ccccc2c1 [Compound 128] | 83.97 % of the DMSO control | 85.63 % of the DMSO control | 91.51 % of the DMSO control | 74.78 % of the DMSO control |
| CC(C)CNC(c1ccccc1)(c1ccccc1)c1ccc2ccccc2c1 [Triarylmethyl Amine Compound No. 43, reference compound] | 82.46 % of the DMSO control | 86.35 % of the DMSO control | 74.72 % of the DMSO control | 86.32 % of the DMSO control |
| O=S(=O)(c1cccc2ccccc12)N1CCCC1 [Compound 123] | 98.83 % of the DMSO control | 85.69 % of the DMSO control | 90.18 % of the DMSO control | 120.6126 % of the DMSO control |
| c1ccc2cc(CN3CCCCC3)ccc2c1 [Compound 141] | 80.31 % of the DMSO control | 80.57 % of the DMSO control | 95.09 % of the DMSO control | 65.29 % of the DMSO control |
| CCN(CC)S(=O)(=O)c1cccc2ccccc12 [Compound 126] | 89.15 % of the DMSO control | 93.7 % of the DMSO control | 89.1 % of the DMSO control | 84.66 % of the DMSO control |
| O=C(Nc1ccc(Br)cc1)c1ccc2ccccc2c1 [Compound 101] | 96.05 % of the DMSO control | 93.29 % of the DMSO control | 88.21 % of the DMSO control | 106.6434 % of the DMSO control |
| CC(NS(=O)(=O)c1ccc2ccccc2c1)c1ccccc1 (stereo not drawn) [Compound 131] | 85.9 % of the DMSO control | 78.38 % of the DMSO control | 91.41 % of the DMSO control | 87.92 % of the DMSO control |
| O=C(c1ccc2ccccc2c1)N1CCCCC1 [Compound 92] | 115.1327 % of the DMSO control | 128.0284 % of the DMSO control | 127.4327 % of the DMSO control | 89.94 % of the DMSO control |
| COc1ccc(NC(=O)c2ccc3ccccc3c2)cc1 [Compound 99] | 104.5892 % of the DMSO control | 106.2723 % of the DMSO control | 116.3467 % of the DMSO control | 91.15 % of the DMSO control |
| COc1cccc(NC(=O)c2ccc3ccccc3c2)c1 [Compound 100] | 84.98 % of the DMSO control | 91.06 % of the DMSO control | 75.01 % of the DMSO control | 88.88 % of the DMSO control |
| c1ccc2cc(CN3CCOCC3)ccc2c1 [Compound 138] | 104.8487 % of the DMSO control | 103.8509 % of the DMSO control | 97.61 % of the DMSO control | 113.0808 % of the DMSO control |

Same assay, conditions: 10 μM, 24 hrs, ELISA of media

| Structure (SMILES) | apoE (apoE3) expression compared to the control DMSO, in words |
| --- | --- |
| CC(C)CNC(c1ccccc1)(c1ccccc1)c1ccc2ccccc2c1 [Triarylmethyl Amine Compound No. 43, reference compound] | effectively decrease |

From patent US10214502B2, “Method of inhibiting apolipoprotein-E expression while increasing expression of at least one of LDL-receptor protein or AbcA1 protein comprising administering a small compound” (California State University, Fresno, priority 2016, dated 2019)
